Measurements published in publication PMC11040934, “PI3Kγδ inhibition suppresses key disease features in a rat model of asthma” (Respiratory Research, 2024).
Like-named read-outs stand apart in the source and are kept apart here.

Tests used:
rat PI3Kδ = target: T1, rat PI3Kδ (Rattus norvegicus, UniProt A0A8I5Y949); experiment: PI3K δ assay: anti-IgM-stimulated CD86 expression on rat splenic B cells (FACS); type: cell-based; details: mean ± SEM, n = 3
T1 sequence (A0A8I5Y949 1-1047): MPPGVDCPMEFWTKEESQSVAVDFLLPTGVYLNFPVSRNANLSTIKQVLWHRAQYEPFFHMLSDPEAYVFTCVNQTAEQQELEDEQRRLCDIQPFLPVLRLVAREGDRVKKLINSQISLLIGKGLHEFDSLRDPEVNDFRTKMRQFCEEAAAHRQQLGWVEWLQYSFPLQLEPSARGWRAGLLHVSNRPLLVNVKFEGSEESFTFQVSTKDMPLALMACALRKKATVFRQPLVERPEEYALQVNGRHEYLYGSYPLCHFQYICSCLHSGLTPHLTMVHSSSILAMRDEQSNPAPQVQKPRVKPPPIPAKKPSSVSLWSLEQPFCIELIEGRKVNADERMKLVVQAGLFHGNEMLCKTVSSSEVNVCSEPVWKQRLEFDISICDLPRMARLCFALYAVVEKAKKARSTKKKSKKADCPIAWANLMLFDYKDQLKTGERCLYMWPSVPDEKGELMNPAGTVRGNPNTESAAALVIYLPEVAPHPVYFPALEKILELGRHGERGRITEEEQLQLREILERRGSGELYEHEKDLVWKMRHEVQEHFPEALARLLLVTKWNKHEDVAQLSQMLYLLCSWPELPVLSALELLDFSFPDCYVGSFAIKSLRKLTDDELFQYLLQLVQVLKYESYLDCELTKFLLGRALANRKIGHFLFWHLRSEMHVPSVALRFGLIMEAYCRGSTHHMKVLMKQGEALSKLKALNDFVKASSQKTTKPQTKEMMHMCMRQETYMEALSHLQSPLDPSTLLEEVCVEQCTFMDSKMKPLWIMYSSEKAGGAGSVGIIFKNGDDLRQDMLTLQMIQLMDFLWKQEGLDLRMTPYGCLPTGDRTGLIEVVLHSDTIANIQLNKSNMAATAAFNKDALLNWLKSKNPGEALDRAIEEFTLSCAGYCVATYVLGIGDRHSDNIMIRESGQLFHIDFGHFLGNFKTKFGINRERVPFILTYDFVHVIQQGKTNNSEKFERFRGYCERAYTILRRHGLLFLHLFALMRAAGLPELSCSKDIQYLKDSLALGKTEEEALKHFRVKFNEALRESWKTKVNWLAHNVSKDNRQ
Method: (§1) PI3K δ assay: single cell suspension was obtained from the spleen of male Sprague Dawley rat; cells were cultured in RPMI containing heat-inactivated 10% FBS, pre-treated (1 hr., 37 °C, 5% CO2) with vehicle DMSO or PI3K inhibitors, followed by stimulation with AffiniPure F(ab’)2 Fragment Goat Anti-Rat IgM, μ chain specific, Jackson Immunoresearch (112–006-075) at 5 μg/mL (EC80 determined in house; 20–22 hrs). Then, cells were washed with FACS buffer (2% FBS, […]) and stained (15 mins, 4 °C) with Fc block (1:100, 550,273, BD bioscience), LIVE/DEAD Fixable Aqua Dead Cell Stain Kit (L34957, Invitrogen, 1:300), CD45R (B220)-PeCy7 (HIS24) (25–0460-82, eBioscience, 1:100), CD3-AF647 (IF4) (201,408, Biolegend, 1:100), CD86-FITC (24F) (200,305, Biolegend, 1:50). Cells were acquired on the Flow Cytometer (BD LSRFortessa™) and analysed using FlowJo 9.9 software (TreeStar). FACS gating strategy: lymphocytes (FSC-A vs SSC-A), doublets exclusion (FSC-W vs FSC-H), live cells (Aqua-530-), B cell identification CD3- B220 + % of positive B cells for CD86. IC50 values were determined in Graph Pad through a nonlinear fit on log transform data: log inhibitor vs response, variable slope, 4 parameters. Fraction unbound in in vitro assay is calculated using the following equation: fu^′=DF·fup/1+DF-1·fup where fu’ is the fraction unbound in assay media; fup is the experimentally determined fraction unbound in undiluted human plasma; DF is the dilution factor (fold difference between protein concentration in human plasma and assay media, using an albumin concentration of 600 μM (40 g/L) for undiluted plasma) Table 2.

[1] = Human plasma protein binding and unbound fraction in assay media; type: in vitro ADME
Method: as §1

[2] = Lung tissue and plasma levels after intratracheal dosing (LC-MS/MS); type: in vivo
Method: Initially a time course study was performed, followed by a characterisation study with compound & clinical comparator. For both studies, rats were sensitised on day 0, 14 and 21 by an intraperitoneal (i.p.) injection of 4 mL/kg (1 mL/rat) of ovalbumin (OVA;100 μg/rat) in Imject™ Alum (20 mg/rat aluminium hydroxide and 20 mg/rat magnesium hydroxide) or sham sensitised (Saline [Sal] in Imject™ Alum). On day 28 rats were challenged with 1% (w/v) aerosolised OVA in isotonic saline, or sham challenged with isotonic saline (30 mins).
For the time course study, animals were terminally anaesthetized, via overdose i.p. with sodium pentobarbitone (200 mg/kg), 1–24 hrs post antigen challenge. For the compound study, animals were terminally anaesthetised, via overdose i.p. with sodium pentobarbitone (200 mg/kg), 2 or 24 hrs post antigen challenge. […]
50 μL plasma was protein precipitated by addition of 180 μL acetonitrile containing 0.2% formic acid & 50 nM internal standard. […] Plasma concentrations of AZD8154 were determined by liquid chromatography with tandem mass spectrometric detection (LC-MS/MS).
Lung pieces were weighed and homogenised in a 1 mL ringer solution using bead-beating technology (Bertin Technologies, Montigny le Bretonneux, France). […] Lung concentrations of AZD8154 were determined by LC-MS/MS. […]

- IC50 (rat PI3Kδ; CD86 expression on B cells, read-out: rat δ total IC50): 10.5 ± 6.2 nM
- IC50 (rat PI3Kδ; corrected for protein binding in the assay, read-out: rat δ free IC50): 0.63 ± 0.37 nM
- fraction unbound ([1]; human plasma, fraction unbound, read-out: Human ppb (fu, %)): 0.0063
- fraction unbound ([1]; human, assay media (PI3K δ assay), fraction unbound in assay media (δ assay, RPMI 10% FBS), read-out: Fu’): 0.06
- Mean concentration in lung tissue and plasma versus dose ([2]; i.t. 0.02, 0.1, 0.3 mg/kg, 2 & 24 hrs post-challenge): increased with increasing dose
- level in lung tissue compared to plasma ([2]; i.t., up to 24 hrs post-dosing): significantly higher in the lung tissue
SMILES: Cc1nc(Nc2cccc(N3CCCC3=O)n2)sc1-c1cc2c(c(S(C)(=O)=O)c1)C(=O)N([C@@H](C)C1CC1)C2 [AZD8154]
